In ChEMBL document CHEMBL1123733, “Structure-activity relationship in PAF-acether. 3. Hydrophobic contribution to agonistic activity” (J Med Chem, 1987):

Legend:
[1] = species on record: Oryctolagus cuniculus; assay: Relative aggregant activity in rabbit platelets was determined; assay type: functional
[2] = species on record: Oryctolagus cuniculus; assay: Compound was tested in vitro for its ability to aggregate platelet-rich plasma (PRP) in rabbit; assay type: functional
[3] = system: Cavia porcellus; assay: Compound was evaluated for in vivo bronchoconstriction in anesthetized guinea pig (3 cm H2O); assay type: functional, Lung
[4] = system: Cavia porcellus; assay: Compound was evaluated for in vivo thrombocytopenia effect in anesthetized guinea pig; assay type: functional, organism-based
[5] = species on record: Oryctolagus cuniculus; assay: Compound was tested in vitro for its ability to aggregate washed rabbit platelets (WP); assay type: functional
[6] = system: Rattus norvegicus; assay: (§1) Compound is evaluated for hypotensive activity in anesthetized rat (in vivo); assay type: functional
[7] = as §1; assay type: functional

Compound `CCCCCCCCCCCCCCCCCCOCC(COP(=O)([O-])OCC[N+](C)(C)C)OC(C)=O` (stereo not drawn) has an RA [1] of 1 and an EC50 [2] of 57 nM.
`CCCCCCCCCCCCCCCC(=O)OCC(COP(=O)([O-])OCC[N+](C)(C)C)OC(C)=O` (stereo not drawn) showed an RA [1] of 0.009.
Compound `CCCCCCCCCCCCCCCCCCC(COP(=O)([O-])OCC[N+](C)(C)C)OC(C)=O` (stereo not drawn) has an RA [1] of 0.022.
`CCCCCCCCCCOc1ccc(COCC(COP(=O)([O-])OCC[N+](C)(C)C)OC(C)=O)cc1` (stereo not drawn) gave an RA [1] of 0.01.
`CCCCCC/C=C/CCCCCCCCOCC(COP(=O)([O-])OCC[N+](C)(C)C)OC(C)=O` (stereo not drawn) showed an RA [1] of 1.6.
Work on `CCCCCCOCC(COP(=O)([O-])OCC[N+](C)(C)C)OC(C)=O` (stereo not drawn) yielded an Activity [3] of 2.6e-08 M/kg, an EC50 [4] of 1e-07 M/kg and an RA [1] of 0.003. The EC50 [2] was 17000 nM, the EC50 [5] was 310 nM and the EC30 [6] was 7e-07 M/kg.
`CCCCOCC(COP(=O)([O-])OCC[N+](C)(C)C)OC(C)=O` (stereo not drawn) showed an Activity [3] of 1e-06 M/kg, an EC50 [4] of 1e-06 M/kg and an RA [1] of 0.001. The EC50 [2] was 100000 nM, the EC50 [5] was 1800 nM and the EC30 [6] was 1.1e-06 M/kg.
In the case of `CCCCCCCCCCCCCCCCCC(=O)OCC(COP(=O)([O-])OCC[N+](C)(C)C)OC(C)=O` (stereo not drawn), the RA [1] is reported as 0.004.
`CCCCC/C=C/C/C=C/CCCCCCCCOCC(COP(=O)([O-])OCC[N+](C)(C)C)OC(C)=O` (stereo not drawn) showed an RA [1] of 2.667.
`CCCCCCCCCCCCCCCCCCSCC(COP(=O)([O-])OCC[N+](C)(C)C)OC(C)=O` (stereo not drawn) gave an RA [1] of 0.
Work on `COCC(COP(=O)([O-])OCC[N+](C)(C)C)OC(C)=O` (stereo not drawn) yielded an Activity [3] of over 1.6e-06 M/kg, an EC50 [4] of over 1.6e-06 M/kg and an EC50 [2] of over 100000 nM. The EC30 [6] was over 1.6e-06 M/kg.
`CCCCCCCCCCCCCCCCCCCCOCC(COP(=O)([O-])OCC[N+](C)(C)C)OC(C)=O` (stereo not drawn) showed an Activity [3] of 1.3e-09 M/kg, an EC50 [4] of 1.8e-10 M/kg and an RA [1] of 0.8. The EC50 [2] was 190 nM, the EC50 [5] was 0.33 nM and the EC30 [6] was 2.4e-09 M/kg.
`CCCCCCCCCCCCCCCCCC(COP(=O)([O-])OCC[N+](C)(C)C)OC(C)=O` (stereo not drawn) gave an RA [1] of 0.005.
Compound `CCCCCCCCCCCCOCC(COP(=O)([O-])OCC[N+](C)(C)C)OC(C)=O` (stereo not drawn) has an Activity [3] of 1.2e-10 M/kg, an EC50 [4] of 6e-10 M/kg and an RA [1] of 1.248. For the same compound, the EC50 [2] was 230 nM, the EC50 [5] was 0.45 nM and the EC30 [6] was 3.3e-09 M/kg.
For `CCCCCCCCCCCCCCCCCCOC[C@H](COP(=O)([O-])OCC[N+](C)(C)C)OC(C)=O`, the Activity [3] was 1.8e-10 M/kg, the EC50 [4] was 1.8e-10 M/kg and the EC50 [2] was 19 nM. The EC30 [6] was 4.9e-10 M/kg.
For `CCCCCCCCCCCCCCCCc1ccccc1OCC(COP(=O)([O-])OCC[N+](C)(C)C)OC(C)=O` (stereo not drawn), the RA [1] was 0.002.
`CCCCCCCCCCCCCCCCOCCC(COP(=O)([O-])OCC[N+](C)(C)C)OC(C)=O` (stereo not drawn) showed an RA [1] of 0.015.
Compound `CCCCCCCCCCCCCCc1cccc(OCC(COP(=O)([O-])OCC[N+](C)(C)C)OC(C)=O)c1` (stereo not drawn) has an RA [1] of 0.364.
In the case of `CCCCCCCCCCOCCOCCOCC(COP(=O)([O-])OCC[N+](C)(C)C)OC(C)=O` (stereo not drawn), the RA [1] is reported as 0.28.
In the case of `CCCCCCCCCCOCC(COP(=O)([O-])OCC[N+](C)(C)C)OC(C)=O` (stereo not drawn), the Activity [3] is reported as 2.5e-10 M/kg, the EC50 [4] is reported as 6e-10 M/kg and the RA [1] is reported as 1.048. For the same compound, the EC50 [2] was 1200 nM, the EC50 [5] was 8.5 nM and the EC30 [7] was 7e-09 M/kg.
With `CCCCCCCCCCCCCCCCCCCCC(COP(=O)([O-])OCC[N+](C)(C)C)OC(C)=O` (stereo not drawn) the RA [1] was 0.
`CCCCCCCCCCOCc1ccc(OCC(COP(=O)([O-])OCC[N+](C)(C)C)OC(C)=O)cc1` (stereo not drawn) gave an RA [1] of 0.01.
In the case of `COCCOCCOCCCCCCCCOCC(COP(=O)([O-])OCC[N+](C)(C)C)OC(C)=O` (stereo not drawn), the RA [1] is reported as 0.007.
Compound `CCCCCCCCCCCCCCc1ccc(OCC(COP(=O)([O-])OCC[N+](C)(C)C)OC(C)=O)cc1` (stereo not drawn) has an RA [1] of 0.302.
In the case of `CCCCCCCC/C=C/CCCCCCCCOCC(COP(=O)([O-])OCC[N+](C)(C)C)OC(C)=O` (stereo not drawn), the RA [1] is reported as 2.
For `CCCCCCCCCCCCCCCCOCC(COP(=O)([O-])OCC[N+](C)(C)C)OC(C)=O` (stereo not drawn) [PLATELET ACTIVATING FACTOR], the Activity [3] was 5e-11 M/kg, the EC50 [4] was 2e-10 M/kg and the RA [1] was 1.268. For the same compound, the EC50 [2] was 45 nM, the EC50 [5] was 0.2 nM and the EC30 [6] was 1.3e-10 M/kg.
